Measured values as given in patent publication US20250325569A1, “COMPOSITIONS AND METHODS OF MAKING AND USE THEREOF” (Ohio State Innovation Foundation, priority 2022, published 2025).
Converted amounts (≈) assume the structure as drawn.

Tests used:
Assay type in all cases: cell-based
[1] = test system: yeast, and filamentous fungi; assay: Antifungal activity: microbroth dilution (yeasts) and disk diffusion (filamentous fungi); details: panel of yeast and filamentous fungi (Table 12)
Protocol: Antimicrobial Assays. Susceptibility testing was performed using the microbroth dilution method in 96 round-well microtiter plates following the general guidelines described by the Clinical and Laboratory Standards Institute (CLSI). Compounds were prepared as 50λ of stocks (10 mM) by dissolving in dI H2O. All bacterial strains were grown and assayed in Mueller-Hinton and M9 glucose media (with amendments added as required), and yeast strains in YMM. Overnight cultures were inoculated into 3 mL of fresh growth media following a 1:100 dilution. Upon mid-exponential growth (OD600 0.4-0.6), cultures were diluted to 5×10^6 CFU mL-1 (based on previously determined calibration curves) and used as inoculum into assay plates. Wells contained 100 μL of media with 5×10^5 CFU mL-1 of test organism, and serial ½-dilutions of the test compound (starting with 200 μM). E. coli WM6242 was assayed with induction of the phosphonic acid uptake system including 1 mM IPTG in assay wells. […] Culture densities (OD600) were recorded using a Bio-Rad xMark microplate spectrophotometer after 16 hours for all strains except Bacillus, which were after 24 hours. […]
Antimicrobial Assays. […] Culture densities (OD600) were recorded using a Bio-Rad xMark microplate spectrophotometer after 16 hours for all strains except bacilli, which were recorded after 24 hours. […]

[2] = test system: Salmonella enterica LT2; assay: Microbroth dilution MIC; details: for MIC: Salmonella enterica LT2
Protocol: (§1) Antimicrobial Assays. Susceptibility testing was performed using the microbroth dilution method in 96 round-well microtiter plates following the general guidelines described by the Clinical and Laboratory Standards Institute (CLSI). Compounds were prepared as 50λ of stocks (10 mM) by dissolving in dI H2O. All bacterial strains were grown and assayed in Mueller-Hinton and M9 glucose media (with amendments added as required), and yeast strains in YMM. Overnight cultures were inoculated into 3 mL of fresh growth media following a 1:100 dilution. Upon mid-exponential growth (OD600 0.4-0.6), cultures were diluted to 5×10^6 CFU mL-1 (based on previously determined calibration curves) and used as inoculum into assay plates. Wells contained 100 μL of media with 5×10^5 CFU mL-1 of test organism, and serial ½-dilutions of the test compound (starting with 200 μM). E. coli WM6242 was assayed with induction of the phosphonic acid uptake system including 1 mM IPTG in assay wells. Controls wells contained 200 µM kanamycin (for bacteria) or nystatin (for yeasts), no compound addition (vehicle only), and no cell addition (added media instead). Microtiter plates were incubated with shaking (220 rpm) at their respective growth temperatures. Culture densities (OD600) were recorded using a Bio-Rad xMark microplate spectrophotometer after 16 hours for all strains except Bacillus, which were after 24 hours. Assays were performed in triplicated on separate independent days. […] Minimum inhibitory concentrations are from triplicate assays performed on separate days.
(§2) Antimicrobial Assays. […] Susceptibility testing was performed using the microbroth dilution method in 96 round-well microtiter plates as previously described [A20]. Compounds were prepared as 50× of stocks (10 Mm) by dissolving in Di H2O. All bacterial strains were grown and assayed M9 glucose media (with amendments added as required), and yeast strains in YMM. Controls wells contained 200 µM kanamycin (for bacteria) or nystatin (for yeasts), no compound addition (vehicle only), and no cell addition (added media instead). Culture densities (OD600) were recorded using a Bio-Rad xMark microplate spectrophotometer after 16 hours for all strains except bacilli, which were recorded after 24 hours. […] MICs values are from triplicate assays performed on separate days. Disk diffusion assays were used to assess antimicrobial activity of the purified compounds against filamentous fungi and against Mycobacterium smegmatis [A20].

[3] = test system: Acinetobacter calcoaceticus ATCC 23055; assay: Microbroth dilution MIC
Protocol: as §1, §2

[4] = test system: Pseudomonas aeruginosa PA01; assay: Microbroth dilution MIC
Protocol: as §1, §2

[5] = test system: Bacillus subtilis ATCC 6633; assay: Microbroth dilution MIC
Protocol: as §1, §2

[6] = test system: Serratia marcescens NRRL B-2544; assay: Microbroth dilution MIC; details: for MIC: Serratia marcescens NRRL B-2544
Protocol: as §1, §2

[7] = test system: Escherichia coli K12; assay: Microbroth dilution MIC; details: for MIC: Escherichia coli K12
Protocol: as §1, §2

[8] = test system: Erwinia rhapontici KSJ3948; assay: Microbroth dilution MIC
Protocol: as §1, §2

[9] = test system: Pantoea ananatis LMG 20103; assay: Microbroth dilution MIC
Protocol: as §1, §2

[10] = test system: Staphylococcus aureus ATCC 23055; assay: Microbroth dilution MIC
Protocol: as §1, §2

[11] = test system: Citrobacter freundii ATCC 8090; assay: Microbroth dilution MIC
Protocol: as §1, §2

[12] = test system: Rhodococcus jostii RHA1; assay: Microbroth dilution MIC
Protocol: as §1, §2

[13] = test system: Enterobacter aerogenes CDC 1998-68; assay: Microbroth dilution MIC
Protocol: as §1, §2

[14] = test system: Bacillus megaterium ATCC 19213; assay: Microbroth dilution MIC
Protocol: as §1, §2

[15] = test system: Pseudomonas aeruginosa K; assay: Microbroth dilution MIC; details: for MIC: Pseudomonas aeruginosa K
Protocol: as §1, §2

[16] = test system: Escherichia coli WM6242; assay: Microbroth dilution MIC; details: Table 2 (MIC90), triplicate
Protocol: (§3) Antimicrobial Assays. […] Compounds were prepared as 50λ of stocks (10 mM) by dissolving in dI H2O. […] Overnight cultures were inoculated into 3 mL of fresh growth media following a 1:100 dilution. Upon mid-exponential growth (OD600 0.4-0.6), cultures were diluted to 5×10^6 CFU mL-1 (based on previously determined calibration curves) and used as inoculum into assay plates. Wells contained 100 μL of media with 5×10^5 CFU mL-1 of test organism, and serial ½-dilutions of the test compound (starting with 200 μM). E. coli WM6242 was assayed with induction of the phosphonic acid uptake system including 1 mM IPTG in assay wells. […] Microtiter plates were incubated with shaking (220 rpm) at their respective growth temperatures. […] Assays were performed in triplicated on separate independent days. […] Minimum inhibitory concentrations are from triplicate assays performed on separate days.

[17] = test system: Salmonella enterica ser. Tennessee E2007000304; assay: Microbroth dilution MIC; details: Table 13, minimal media
Protocol: as §2

[18] = test system: Acidovorax citrulli ATCC 29625; assay: Microbroth dilution MIC; details: Paracidovorax citrulli, ATCC29625, Table 13, minimal media
Protocol: as §2

[19] = test system: Acidovorax avenae ATCC 19860; assay: Microbroth dilution MIC; details: Paracidovorax avenae, ATCC19860, Table 13, minimal media
Protocol: as §2

[20] = test system: Pseudomonas syringae pv. Tomato Max 14; assay: Microbroth dilution MIC; details: Table 13, minimal media
Protocol: as §2

[21] = test system: Pseudomonas fluorescens Pf5; assay: Microbroth dilution MIC; details: Table 13, minimal media
Protocol: as §2

[22] = test system: Acidovorax temperans ATCC 49665; assay: Microbroth dilution MIC; details: ATCC49665, Table 13, minimal media
Protocol: as §2

[23] = test system: Acidovorax konjacii ATCC 33996; assay: Microbroth dilution MIC; details: Table 13, minimal media
Protocol: as §2

[24] = test system: Acidovroax delafieldii ATCC 17505; assay: Microbroth dilution MIC; details: Table 13, minimal media
Protocol: as §2

[25] = test system: Salmonella enterica ser. Livingstone 1236H; assay: Microbroth dilution MIC
Protocol: as §2

[26] = test system: Pseudomonas medocina Palleroni ATCC 25411; assay: Microbroth dilution MIC; details: ATCC25411, Table 13, minimal media
Protocol: as §2

[27] = test system: Curtobacterium sp. MMLR14_014; assay: Antibacterial susceptibility testing; details: strains of Curtobacterium commonly present in soils and on plants
Protocol: as §2

[28] = test system: Escherichia coli WM6242 (Pn Uptake Induced); assay: Microbroth dilution MIC, phosphonate uptake induced with 1 mM IPTG
Protocol: as §3

[29] = test system: Pseudomonas syringae B278a; assay: microbe, parasite or virus in culture; details: Table 13, minimal media
Protocol: as §2

[30] = Table 2 (MIC90), microbroth dilution, triplicate
[31] = Table 13, minimal media, ≥90% growth inhibition
[32] = ATCC23055, Table 2 (MIC90), microbroth dilution, triplicate

CC(N)C(=O)NC(CP(=O)(O)O)C(=O)O (stereo not drawn) [Compound 2]
antifungal activity (in words) [1]: neither compound exhibited antifungal activity
MIC [2, 30]: > 200 µM
MIC [2, 31]: >200 µM
MIC [3, 32]: > 200 µM
MIC ([3]; Table 13, minimal media): >200 µM
MIC [4, 30]: > 200 µM
MIC ([4]; Table 13, minimal media): >200 µM
MIC ([5]; ATCC6633, Table 2 (MIC90), microbroth dilution, triplicate): 200 µM (≈ 48 µg/mL)
MIC ([5]; Table 13, minimal media): 200 µM (≈ 48 µg/mL)
MIC ([6]; NRRLB2544, Table 2 (MIC90), microbroth dilution, triplicate): > 200 µM
MIC ([6]; Table 13, minimal media): >200 µM
MIC [7, 30]: > 200 µM
MIC [7, 31]: >200 µM
MIC ([8]; KSJ3948, Table 2 (MIC90), Erwinia rhapontici KSJ, microbroth dilution, triplicate): > 200 µM
MIC ([8]; Table 13, Erwinia rhapontici KSJ3948, minimal media, ≥90% growth inhibition): >200 µM
MIC ([9]; LMG20103, Table 2 (MIC90), microbroth dilution, triplicate): 100 µM (≈ 24 µg/mL)
MIC [9, 31]: 100 µM (≈ 24 µg/mL)
MIC [10, 32]: > 200 µM
MIC ([10]; Table 13, minimal media): >200 µM
MIC ([11]; ATCC8090, Table 2 (MIC90), microbroth dilution, triplicate): > 200 µM
MIC [11, 31]: >200 µM
MIC [12, 30]: > 200 µM
MIC ([12]; Table 13, minimal media): >200 µM
MIC ([13]; Klebsiella aerogenes, CDC199868, Table 2 (MIC90), microbroth dilution, triplicate): > 200 µM
MIC [13, 31]: >200 µM
MIC ([14]; Priestia megaterium, ATCC19213, Table 2 (MIC90), microbroth dilution, triplicate): 12.5 µM (≈ 3 µg/mL)
MIC ([14]; Table 13, minimal media): 12.5 µM (≈ 3 µg/mL)
MIC [15, 30]: > 200 µM
MIC ([15]; Table 13, minimal media): >200 µM
MIC [16]: > 200 µM
MIC [17]: > 200 µM
MIC [18]: > 200 µM
MIC [19]: > 200 µM
MIC [20]: > 200 µM
MIC [21]: > 200 µM
MIC [22]: > 200 µM
MIC [23]: > 200 µM
MIC [24]: > 200 µM
MIC [25]: > 200 µM
MIC [26]: > 200 µM
inhibition (in words) [27]: Neither compound inhibited
MIC [28]: > 200 µM
MIC [29]: > 200 µM

CC(N)C(=O)NC(C)C(=O)NC(CP(=O)(O)O)C(=O)O (stereo not drawn) [Compound 3]
inhibitory activity compared with phosphonoalamide A (previously measured) ([2]; S. enterica LT2, i.e. lower MICs): greater inhibitory activity
inhibitory activity compared with phosphonoalamide A (previously measured) ([6]; S. marcescens B-2544, i.e. lower MICs): greater inhibitory activity
inhibitory activity compared with phosphonoalamide A (previously measured) ([7]; E. coli K12, i.e. lower MICs): greater inhibitory activity
inhibitory activity compared with phosphonoalamide A (previously measured) ([15]; P. aeuroginosa K, i.e. lower MICs): greater inhibitory activity
inhibition (in words) [27]: Neither compound inhibited
